According to ChEMBL document CHEMBL4020814, “Synthesis, Binding Mode, and Antihyperglycemic Activity of Potent and Selective (5-Imidazol-2-yl-4-phenylpyrimidin-2-yl)[2-(2-pyridylamino)ethyl]amine Inhibitors of Glycogen Synthase Kinase 3” (J Med Chem, 2017):
pEC50, pIC50: −log10 of the molar value.

What was measured:
[1] = Inhibition of human GSK3 using biotin-CREB peptide substrate after 1 hr by scintillation counting method
[2] = Inhibition of GSK3 expressed in CHO-IR cells expressing human insulin receptor assessed as glycogen synthase activation after 30 mins by filter paper assay; type: cell-based, Cavia porcellus

Row | Structure (SMILES) | pIC50 [1] | pEC50 [2]
1 | O=[N+]([O-])c1ccc(NCCN(CCN2CCCC2)c2ncc(-n3ccnc3)c(-c3ccc(Cl)cc3Cl)n2)nc1 | 7.59 | 6.43
2 | CN1CCN(c2ccc(-c3nc(NCCNc4ccc([N+](=O)[O-])cn4)ncc3-n3ccnc3)cc2)CC1 | 5.95 | 
3 | CCOC(=O)C1=C(c2ccncc2)N=C(NCCNc2ccc([N+](=O)[O-])cn2)NC1c1ccc(C(N)=O)cc1 (configuration not stated) | 5.43 | 
4 | O=[N+]([O-])c1ccc(NCCNc2ncc(-n3ccnc3)c(-c3ccc(-n4ccnc4)cc3)n2)nc1 | 6.91 | 
5 | CCOC(=O)c1cnc(NCCNc2ccc([N+](=O)[O-])cn2)nc1-c1ccc(C#N)cc1 | 7.28 | 5.66
6 | N#Cc1ccc(-c2nc(NCCNc3ccc([N+](=O)[O-])cn3)ncc2C(N)=O)cc1 | 7.54 | < 5.00
7 | CCOC(=O)c1c(CC)nc(NCCNc2ccc([N+](=O)[O-])cn2)nc1-c1ccc(C(N)=O)cc1 | 6.92 | 5.02
8 | CC(C)(C)OC(=O)N1CCN(c2ccc(-c3nc(NCCNc4ccc([N+](=O)[O-])cn4)ncc3-n3ccnc3)cc2)CC1 | 5.71 | 
9 | N#Cc1ccc(-c2nc(NCCNc3ccc([N+](=O)[O-])cn3)ncc2C(=O)NCc2ccccc2)cc1 | 7.12 | 
10 | N#Cc1ccc(-c2nc(NCCNc3ccc([N+](=O)[O-])cn3)ncc2C(=O)OCc2ccccc2)cc1 | 6.72 | 
11 | N#Cc1ccc(-c2nc(NCCNc3ccc([N+](=O)[O-])cn3)ncc2C(=O)NCCN)cc1 | 6.82 | 
12 | CCOC(=O)c1c(-c2ccc(C(N)=O)cc2)nc(NCCNc2ccc([N+](=O)[O-])cn2)nc1-c1ccc([N+](=O)[O-])cc1 | 6.82 | 4.74
13 | O=[N+]([O-])c1ccc(NCCN(CCc2ccccn2)c2ncc(-n3ccnc3)c(-c3ccc(Cl)cc3Cl)n2)nc1 | 6.95 | 
14 | N#Cc1ccc(-c2nc(NCCNc3ccc([N+](=O)[O-])cn3)ncc2-n2cncn2)cc1 | 7.72 | 6.00
15 | O=[N+]([O-])c1ccc(NCCNc2ncc(-n3ccnc3)c(-c3ccc(F)cc3)n2)nc1 | 6.70 | 
16 | CN(C)CCN(C)C(=O)c1cnc(NCCNc2ccc([N+](=O)[O-])cn2)nc1-c1ccc(C#N)cc1 | 6.85 | < 5.00
17 | Nc1nc(NCCNc2ncc(NC(=O)NCCN3CCOCC3)c(-c3ccc(Cl)cc3Cl)n2)ccc1[N+](=O)[O-] | 7.80 | 5.52

Row | Structure (SMILES) | pIC50 [1] | pEC50 [2]
18 | N#Cc1ccc(-c2nc(NCCNc3ccc([N+](=O)[O-])cn3)ncc2C(=O)NCc2ccncc2)cc1 | 7.33 | 
19 | N#Cc1ccc(-c2nc(NCCNc3ccc([N+](=O)[O-])cn3)ncc2C(=O)OCCO)cc1 | 7.29 | 5.08
20 | CN1CCN(C)C(CN(CCNc2ccc([N+](=O)[O-])cn2)c2ncc(-n3ccnc3)c(-c3ccc(Cl)cc3Cl)n2)C1 (configuration not stated) | 6.92 | 
21 | N#Cc1ccc(-c2nc(NCCNc3ccc([N+](=O)[O-])cn3)ncc2C(=O)NCCO)cc1 | 7.54 | < 5.00
22 | CNC(=O)c1cnc(NCCNc2ccc([N+](=O)[O-])cn2)nc1-c1ccc(C#N)cc1 | 7.48 | < 5.00
23 | CN(C)C(=O)c1cnc(NCCNc2ccc([N+](=O)[O-])cn2)nc1-c1ccc(C#N)cc1 | 7.21 | 5.06
24 | N#Cc1ccc(-c2nc(NCCNc3ccc([N+](=O)[O-])cn3)ncc2C(=O)N2CCNCC2)cc1 | 6.38 | < 5.00
25 | O=[N+]([O-])c1ccc(NCCNc2ncc(-n3ccnc3)c(-c3ccc(N4CCNCC4)cc3)n2)nc1 | 6.78 | 
26 | O=[N+]([O-])c1ccc(NCCNc2ncc(-n3ccnc3)c(-c3ccc(N4CCOCC4)cc3)n2)nc1 | 7.54 | 5.21
27 | CN1CCCC1CCN(CCNc1ccc([N+](=O)[O-])cn1)c1ncc(-n2ccnc2)c(-c2ccc(Cl)cc2Cl)n1 (configuration not stated) | 7.57 | 6.96
28 | Nc1nc(NCCNc2ncc(NC(=O)CCCN3CCOCC3)c(-c3ccc(Cl)cc3Cl)n2)ccc1[N+](=O)[O-] | 7.62 | 4.75
29 | CCOC(=O)C1=C(c2ccc([N+](=O)[O-])cc2)N=C(NCCNc2ccc([N+](=O)[O-])cn2)NC1c1ccc(C(N)=O)cc1 (configuration not stated) | 5.70 | 
30 | CCOC(=O)C1=C(CC)N=C(NCCNc2ccc([N+](=O)[O-])cn2)NC1c1ccc(C(N)=O)cc1 (configuration not stated) | 5.47 | 
31 | N#Cc1ccc(-c2nc(NCCNc3ccc([N+](=O)[O-])cn3)ncc2C(=O)N2CCOCC2)cc1 | 6.79 | 
32 | CC(C)(C)OC(=O)c1cnc(NCCNc2ccc([N+](=O)[O-])cn2)nc1-c1ccc(C#N)cc1 | 7.60 | 
33 | O=[N+]([O-])c1ccc(NCCNc2ncc(-n3ccnc3)c(-c3ccc(N4CCCCC4)cc3)n2)nc1 | 6.11 | 
34 | CCOC(=O)c1c(-c2ccncc2)nc(NCCNc2ccc([N+](=O)[O-])cn2)nc1-c1ccc(C(N)=O)cc1 | 6.85 | 

The remaining lines, values ahead:

Row | pIC50 [1] | pEC50 [2] | Structure (SMILES)
35 | 8.22 | 6.72 | CC(=O)Nc1cnc(NCCNc2ccc([N+](=O)[O-])c(N)n2)nc1-c1ccc(Cl)cc1Cl
36 | 6.05 |  | COc1ccccc1-c1nc(NCCNc2ccc([N+](=O)[O-])cn2)ncc1-n1ccnc1
37 | 7.57 | 5.82 | COc1ccc(-c2nc(NCCNc3ccc([N+](=O)[O-])cn3)ncc2-n2ccnc2)c(OC)c1
38 | 7.47 | 6.77 | Nc1nc(NCCNc2ncc(-c3nc(C(F)(F)F)c[nH]3)c(-c3ccc(Cl)cc3Cl)n2)ccc1[N+](=O)[O-]
39 | 6.70 | 5.41 | Clc1ccc(-c2nc(NCCNc3cc(Cl)ncn3)ncc2-n2ccnc2)c(Cl)c1
40 | 9.00 | 6.89 | Nc1nc(NCCNc2ncc(-c3nc(-c4ccccc4)c[nH]3)c(-c3ccc(Cl)cc3Cl)n2)ccc1[N+](=O)[O-]
41 | 6.76 |  | COCCN(CCNc1ccc([N+](=O)[O-])cn1)c1ncc(-n2ccnc2)c(-c2ccc(Cl)cc2Cl)n1
42 | 6.63 | 5.03 | N#Cc1cnc(NCCNc2ncc(-n3ccnc3)c(-c3ccc(Cl)cc3Cl)n2)nc1N
43 | 8.22 | 5.80 | Nc1nc(NCCNc2ncc(N3CCCC3=O)c(-c3ccc(Cl)cc3Cl)n2)ccc1[N+](=O)[O-]
44 | 6.00 |  | O=[N+]([O-])c1ccc(NCCNc2ncc(-n3ccnc3)c(-c3ccc(Cl)cc3Cl)n2)nc1O
45 | 5.55 |  | O=[N+]([O-])c1ccc(OCCNc2ncc(-n3ccnc3)c(-c3ccc(Cl)cc3Cl)n2)nc1
46 | 7.66 | 6.49 | Cc1nc(-c2cnc(NCCNc3ccc([N+](=O)[O-])c(N)n3)nc2-c2ccc(Cl)cc2Cl)n(C)c1C
47 | 6.28 | 4.90 | Clc1ccc(-c2nc(NCCNc3nc4ccc(Cl)cc4s3)ncc2-n2ccnc2)c(Cl)c1
48 | 7.51 | 6.05 | O=[N+]([O-])c1ccc(NCCNc2ncc(-n3ccnc3)c(-c3ccc(F)cc3F)n2)nc1
49 | 5.44 |  | CCOC(=O)c1ccc(NCCNc2ncc(-n3ccnc3)c(-c3ccc(Cl)cc3Cl)n2)nc1
50 | 7.57 | 5.52 | CNC(=O)Nc1cnc(NCCNc2ccc([N+](=O)[O-])c(N)n2)nc1-c1ccc(Cl)cc1Cl
51 | 6.24 |  | CNc1nc(NCCNc2ncc(-n3ccnc3)c(-c3ccc(Cl)cc3Cl)n2)ccc1[N+](=O)[O-]
52 | 6.42 |  | FC(F)(F)c1ccnc(NCCNc2ncc(-n3ccnc3)c(-c3ccc(Cl)cc3Cl)n2)n1
53 | 7.28 | 5.92 | O=[N+]([O-])c1ccc(NCCNc2ncc(-n3ccnc3)c(-c3ccc(Cl)cc3)n2)nc1
54 | 5.31 |  | COc1ccc(OC)c(-c2nc(NCCNc3ccc([N+](=O)[O-])cn3)ncc2-n2ccnc2)c1
55 | 8.05 | 6.41 | CS(=O)(=O)Nc1cnc(NCCNc2ccc([N+](=O)[O-])c(N)n2)nc1-c1ccc(Cl)cc1Cl

Row | pIC50 [1] | pEC50 [2] | Structure (SMILES)
56 | 7.46 | 6.46 | CN(C)CCN(CCNc1ccc([N+](=O)[O-])cn1)c1ncc(-n2ccnc2)c(-c2ccc(Cl)cc2Cl)n1
57 | 6.97 | < 5.00 | Cc1cc(NCCNc2ncc(-n3ccnc3)c(-c3ccc(Cl)cc3Cl)n2)n2ncnc2n1
58 | 7.82 | 5.27 | Nc1nc(NCCNc2ncc(N3CCNCC3=O)c(-c3ccc(Cl)cc3Cl)n2)ccc1[N+](=O)[O-]
59 | 7.62 | 5.91 | O=[N+]([O-])c1ccc(NCCNc2ncc(-n3ccnc3)c(-c3ccccc3Cl)n2)nc1
60 | 7.25 | 6.00 | N#Cc1ccc(NCCNc2ncc(-n3ccnc3)c(-c3ccc(Cl)cc3Cl)n2)nc1N
61 | 5.23 |  | CC(=O)c1ccc(NCCNc2ncc(-n3ccnc3)c(-c3ccc(Cl)cc3Cl)n2)nc1
62 | 7.77 | 6.08 | Nc1nc(NCCNc2ncc(CN3CCOCC3)c(-c3ccc(Cl)cc3Cl)n2)ccc1[N+](=O)[O-]
63 | 7.68 | 7.05 | CC(C)c1c[nH]c(-c2cnc(NCCNc3ccc([N+](=O)[O-])c(N)n3)nc2-c2ccc(Cl)cc2Cl)n1
64 | 7.74 | 6.29 | Nc1nc(NCCNc2ncc(N3CCNCC3)c(-c3ccc(Cl)cc3Cl)n2)ccc1[N+](=O)[O-]
65 | 7.60 | 6.17 | CN(C)CC(=O)Nc1cnc(NCCNc2ccc([N+](=O)[O-])c(N)n2)nc1-c1ccc(Cl)cc1Cl
66 | 6.65 | 5.42 | FC(F)(F)c1ccc(NCCNc2ncc(-n3ccnc3)c(-c3ccc(Cl)cc3Cl)n2)nc1
67 | 6.46 |  | COc1cccc(-c2nc(NCCNc3ccc([N+](=O)[O-])cn3)ncc2-n2ccnc2)c1
68 | 7.09 |  | COc1nc(NCCNc2ncc(-n3ccnc3)c(-c3ccc(Cl)cc3Cl)n2)ccc1[N+](=O)[O-]
69 | 7.57 | 5.97 | CC(C)(C)c1c[nH]c(-c2cnc(NCCNc3ccc([N+](=O)[O-])c(N)n3)nc2-c2ccc(Cl)cc2Cl)n1
70 | 7.82 | 6.55 | O=[N+]([O-])c1ccc(NCCNc2ncc(-n3cnnn3)c(-c3ccc(Cl)cc3Cl)n2)nc1
71 | < 5.00 |  | Cc1cc(NCCNc2ncc(-n3ccnc3)c(-c3ccc(Cl)cc3Cl)n2)nc(N)n1
72 | 6.00 |  | CN(C)c1nc(NCCNc2ncc(-n3ccnc3)c(-c3ccc(Cl)cc3Cl)n2)ccc1[N+](=O)[O-]
73 | 6.70 |  | N#Cc1ccnc(NCCNc2ncc(-n3ccnc3)c(-c3ccc(Cl)cc3Cl)n2)c1
74 | 5.47 |  | Cc1cc([N+](=O)[O-])cnc1NCCNc1ncc(-n2ccnc2)c(-c2ccc(Cl)cc2Cl)n1
75 | 6.19 |  | O=[N+]([O-])c1ccc(NCCNc2ncc(-n3ccnc3)c(-c3ccc(Cl)c(Cl)c3)n2)nc1
76 | < 5.00 |  | Clc1ccc(-c2nc(NCCNc3ncccn3)ncc2-n2ccnc2)c(Cl)c1
